Reference: patent US20070185020A1, “Methods and compositions for treating disorders of the extracellular matrix” (priority 2003, published 2007)

Columns and labels:
CDA1 [1] = assay: CDA1 expression in kidney after angiotensin II infusion (immunohistochemistry); format: in vivo, rat
Procedure: Ang II was continuously infused into rats by subcutaneously inserted minipump for 3 days or 14 days at both pressor (60 ng/min) and non-pressor doses (6 ng/min) in eight week old male Sprague Dawley (SD) rats (Cao et al Z; The angiotensin type 2 receptor is expressed in adult rat kidney and promotes cellular proliferation and apoptosis. Kidney int. 2000; 58:2437-2451).
CDA1 staining was performed using a rabbit antihuman CDA1 serum (Chai et al, 2001) in paraffin embedded sections. In brief, following dewaxing, paraffin embedded sections were treated in a microwave oven at low power for 10 minutes in 10 mmol/L sodium citrate buffer (pH 6.0). Endogenous peroxidase was inactivated using 3% hydrogen peroxide (H2O2) in methanol for 20 minutes. The sections were blocked with protein block agent for 20 minutes. The sections were incubated with rabbit antihuman CDA1 serum for 2 hour at room temperature. Biotinylated goat anti-rabbit immunogloblulin (DAKO A/S) was used as a second antibody, followed by avidin biotin horseradish peroxidase complex (ABC Elite kit, Victor Laboratories, Burlingame, Calif.). Detection was accomplished by reaction with 3,3′-diaminobenzidine tetrahydrochloride (DAB, Sigma Chemical Co., St Louis, Mo.) (Cao Z et al. The angiotensin type 2 receptor is expressed in adult rat kidney and promotes cellular proliferation and apoptosis. Kidney Int. 2000; 58:2437-2451.

CDA1 [2] = assay: CDA1 expression and fibrosis in the remnant kidney following subtotal nephrectomy (STNx); format: in vivo, rat; conditions: preliminary data
Procedure: Subtotal nephrectomy (STNx) were performed by right nephrectomy, followed by infarction of approximately two-thirds of the left kidney with selective ligation of all but one extrarenal branch of the left renal artery (CIA40). Anaesthesia was achieved by intraperitoneal injection of pentobarbitone sodium (60 mg/kg). Sham operated rats were used as controls. After operation, the animals were sacrificed at 1, 2, 4, 8 and 12 week and tissue collected for assessment of CDA1 expression and fibrotic growth factors as well as matrix proteins. CDA1 staining was performed using a rabbit antihuman CDA1 serum (Chai et al, 2001) in paraffin embedded sections. In brief, following dewaxing, paraffin embedded sections were treated in a microwave oven at low power for 10 minutes in 10 mmol/L sodium citrate buffer (pH 6.0). Endogenous peroxidase was inactivated using 3% hydrogen peroxide (H2O2) in methanol for 20 minutes. The sections were blocked with protein block agent for 20 minutes. The sections were incubated with rabbit antihuman CDA1 serum for 2 hour at room temperature. Biotinylated goat anti-rabbit immunogloblulin (DAKO A/S) was used as a second antibody, followed by avidin biotin horseradish peroxidase complex (ABC Elite kit, Victor Laboratories, Burlingame, Calif.). […]

CDA1 [3] = conditions: in vitro; reported by other workers; cited from earlier work

Compound: CCCCC(=O)N(Cc1ccc(-c2ccccc2-c2nnn[nH]2)cc1)[C@H](C(=O)O)C(C)C [valsartan]
- Effect on increased CDA1 expression following Ang II infusion (CDA1 [1]; treatment with AT1 receptor antagonist, data not shown): prevented
- Effect on cell injury in remnant kidney (CDA1 [2]): less cell injury
- Effect on CDA1 expression in remnant kidney (CDA1 [2]; FIG. 3B): attenuation of CDA1 expression

Compound: angiotensin II (DRVYIHPF; Angiotensin-2; UniProt P01015 25-32, looked up) [Ang II, peptide hormone infused into rats by minipump to stimulate CDA1 expression]
- CDA1 expression after angiotensin II infusion (CDA1 [1]; immunohistochemical staining, proximal tubules, subcutaneous minipump infusion in Sprague Dawley rats): increased CDA1 expression

Compound: TGF β1: growth factor; CDA1 described as a TGF β1 target gene
- CDA1 expression (CDA1 [3]): increased
